Where two headings read alike, the source gives them in different places.
Tests used:
[1] = system: Reis; assay: herbicidal activity, Hydro Vorauflauf; type: in vivo
Description: (§1) The determination of herbicidal activity is performed according to standard procedure. Again the compounds listed on page 9 are tested.

[2] = system: Echinochloa; assay: herbicidal activity, Hydro Vorauflauf; type: in vivo
Description: as §1

[3] = system: Lepidium; assay: herbicidal activity, Hydro Vorauflauf; type: in vivo
Description: as §1

[4] = system: Solanum; assay: herbicidal activity, Hydro Vorauflauf; type: in vivo
Description: as §1

[5] = biological target: T1, DOXP reductoisomerase of Escherichia coli (UniProt P56139); assay: inhibition of recombinant DOXP reductoisomerase (NADPH oxidation); type: biochemical; settings: 1 mM DOXP, 0,3 mM NADPH, pH 7,5; read-out: IC50(nM) of DOXP reductoisomerase from Helicobacter pilori
T1 sequence (P56139 1-368): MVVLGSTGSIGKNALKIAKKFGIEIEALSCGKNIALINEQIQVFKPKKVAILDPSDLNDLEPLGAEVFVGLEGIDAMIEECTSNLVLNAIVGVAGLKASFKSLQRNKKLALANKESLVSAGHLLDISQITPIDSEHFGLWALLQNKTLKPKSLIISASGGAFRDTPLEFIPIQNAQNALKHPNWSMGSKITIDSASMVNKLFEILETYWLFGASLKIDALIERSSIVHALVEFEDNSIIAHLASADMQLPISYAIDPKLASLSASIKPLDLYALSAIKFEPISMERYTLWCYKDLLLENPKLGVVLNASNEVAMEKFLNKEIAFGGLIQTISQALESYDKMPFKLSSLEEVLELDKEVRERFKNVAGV

[6] = system: Plasmodium falciparum; assay: antimalaria activity on in vitro cultures, [3H]-hypoxanthine incorporation; type: cell-based; settings: 72 h, inhibition of [3H]-hypoxanthine incorporation, 48 + 24 hours, read-out: IC50(nM) of malaria culture (Plasmodium falciparum)
Description: The antimalaria activity of the compounds listed on page 9 was determined on in vitro cultures of the malaria pathogen Plasmodium falciparum. The depressions of a 96-well microtitre plate were charged with in each case 200 μl of an asynchroneous Plasmodium falciparum culture at a parasitaemia of 0,4% and haematokrit of 2%. A serial dilution series of the compounds in triple steps between concentrations of 100 to 0,14 μmol 1^−1 was then prepared. The plates were incubated at 37° C., 3% CO2 and 5% O2 over a period of 48 hours. 30 μl medium supplemented with 27 μCi ml^−1 [^3H]-hypoxanthine were then added to each well. After incubation for 24 hours the parasites were harvested by filtration on a glass fibre filter and the radioactivity which had been incorporated was measured. The inhibition of the growth of parasites was measured as the percentage inhibition of the incorporation of tritium. Inhibition of the growth of the parasites has been determined as percentage inhibition of incorporation of tritium based on a comparison without the substance. The half-maximum inhibitory concentration (IC50) of the substance was determined by extrapolation of the values.

[7] = system: Pseudomonas aeruginosa; assay: antibacterial activity, minimum inhibition concentration in liquid culture; type: cell-based; settings: read-out: MIC(nM) of bacteria culture (Pseudomonas aeruginosa)
Description: A dilution series comprising the concentrations 500, 100, 50, 10 and 0 μmol 1^−1 of the individual compounds in LB medium is introduced into 5 culture microtubes in a volume of 0,5 ml. The tubes were inoculated with 10 μl of an overnight culture of E. coli K12 and shaken overnight at 37° C. The growth of the bacteria was assessed on the basis of the turbidity of the medium. The minimum concentration causing inhibition of bacterial growth was determined (minimum inhibition concentration MIC)
The antibacterial activity of P. aeruginosa was determined in the same manner.

[8] = system: Abutilon theophrasti; assay: herbicidal activity, Erde Vorauflauf; type: in vivo
Description: as §1

[9] = system: Galium aperine; assay: herbicidal activity, Erde Vorauflauf; type: in vivo
Description: as §1

[10] = system: Cyperus esculentus; assay: herbicidal activity, Erde Vorauflauf; type: in vivo
Description: as §1

[11] = system: Zea mays; assay: herbicidal activity, Erde Vorauflauf; type: in vivo
Description: as §1

[12] = system: Avena fatua; assay: herbicidal activity, Erde Vorauflauf; type: in vivo
Description: as §1

[13] = system: Setaria viridis; assay: herbicidal activity, Erde Vorauflauf; type: in vivo
Description: as §1

[14] = system: Amaranthus retroflexus; assay: herbicidal activity, Erde Vorauflauf; type: in vivo
Description: as §1

[15] = system: Xanthium strumarium; assay: herbicidal activity, Erde Vorauflauf; type: in vivo
Description: as §1

[16] = system: Beta vulgaris; assay: herbicidal activity, Erde Vorauflauf; type: in vivo
Description: as §1

[17] = system: Alopecurus myosuroides; assay: herbicidal activity, Erde Vorauflauf; type: in vivo
Description: as §1

[18] = system: Sinapis arvensis; assay: herbicidal activity, Erde Vorauflauf; type: in vivo; settings: Mutarda arvensis
Description: as §1

[19] = system: Abutilon theophrasti; assay: herbicidal activity, Erde Nachauflauf; type: in vivo
Description: as §1

[20] = system: Galium aperine; assay: herbicidal activity, Erde Nachauflauf; type: in vivo
Description: as §1

[21] = system: Cyperus esculentus; assay: herbicidal activity, Erde Nachauflauf; type: in vivo
Description: as §1

[22] = system: Zea mays; assay: herbicidal activity, Erde Nachauflauf; type: in vivo
Description: as §1

[23] = system: Avena fatua; assay: herbicidal activity, Erde Nachauflauf; type: in vivo
Description: as §1

[24] = system: Setaria viridis; assay: herbicidal activity, Erde Nachauflauf; type: in vivo
Description: as §1

[25] = system: Amaranthus retroflexus; assay: herbicidal activity, Erde Nachauflauf; type: in vivo
Description: as §1

[26] = system: Xanthium strumarium; assay: herbicidal activity, Erde Nachauflauf; type: in vivo
Description: as §1

[27] = system: Beta vulgaris; assay: herbicidal activity, Erde Nachauflauf; type: in vivo
Description: as §1

[28] = system: Alopecurus myosuroides; assay: herbicidal activity, Erde Nachauflauf; type: in vivo
Description: as §1

[29] = system: Sinapis arvensis; assay: herbicidal activity, Erde Nachauflauf; type: in vivo; settings: Mutarda arvensis
Description: as §1

O=C1CCON1CC(O)CP(=O)(O)O (stereo not shown) [Compound 2]
110 nM: IC50 [5]
90%: pest or weed control at 500 g/ha ([24]; 500 Gramm/Hektar)
1200 nM: IC50 [6]
50%: pest or weed control at 500 g/ha ([26]; 500 Gramm/Hektar)
30%: pest or weed control at 500 g/ha ([23]; 500 Gramm/Hektar) | pest or weed control at 500 g/ha ([29]; 500 Gramm/Hektar)
1600 nM: MIC [7]
0%: pest or weed control at 1000 g/ha ([1]; 1000 Gramm/Hektar) | pest or weed control at 1000 g/ha ([2]; 1000 Gramm/Hektar) | pest or weed control at 1000 g/ha ([3]; 1000 Gramm/Hektar) | pest or weed control at 1000 g/ha ([4]; 1000 Gramm/Hektar) | pest or weed control at 500 g/ha ([8]; 500 Gramm/Hektar) | pest or weed control at 500 g/ha ([9]; 500 Gramm/Hektar) | pest or weed control at 500 g/ha ([10]; 500 Gramm/Hektar) | plant injury at 500 g/ha ([11]; 500 Gramm/Hektar) | pest or weed control at 500 g/ha ([12]; 500 Gramm/Hektar) | pest or weed control at 500 g/ha ([13]; 500 Gramm/Hektar) | pest or weed control at 500 g/ha ([14]; 500 Gramm/Hektar) | pest or weed control at 500 g/ha ([15]; 500 Gramm/Hektar) | plant injury at 500 g/ha ([16]; 500 Gramm/Hektar) | pest or weed control at 500 g/ha ([17]; 500 Gramm/Hektar) | pest or weed control at 500 g/ha ([18]; 500 Gramm/Hektar) | pest or weed control at 500 g/ha ([19]; 500 Gramm/Hektar) | pest or weed control at 500 g/ha ([20]; 500 Gramm/Hektar) | pest or weed control at 500 g/ha ([21]; 500 Gramm/Hektar) | plant injury at 500 g/ha ([22]; 500 Gramm/Hektar) | pest or weed control at 500 g/ha ([25]; 500 Gramm/Hektar) | plant injury at 500 g/ha ([27]; 500 Gramm/Hektar) | pest or weed control at 500 g/ha ([28]; 500 Gramm/Hektar)

CN(C)CC(=O)CN1OCCC(C)(C)C1=O [Compound 8]
20%: pest or weed control at 1000 g/ha ([14]; 1000 Gramm/Hektar)
0%: pest or weed control at 2000 g/ha ([1]; 2000 Gramm/Hektar) | pest or weed control at 1000 g/ha ([8]; 1000 Gramm/Hektar) | pest or weed control at 1000 g/ha ([9]; 1000 Gramm/Hektar) | pest or weed control at 1000 g/ha ([10]; 1000 Gramm/Hektar) | pest or weed control at 1000 g/ha ([13]; 1000 Gramm/Hektar) | pest or weed control at 1000 g/ha ([15]; 1000 Gramm/Hektar) | pest or weed control at 1000 g/ha ([21]; 1000 Gramm/Hektar)
90%: pest or weed control at 1000 g/ha ([24]; 1000 Gramm/Hektar) | pest or weed control at 1000 g/ha ([26]; 1000 Gramm/Hektar) | pest or weed control at 1000 g/ha ([29]; 1000 Gramm/Hektar)
80%: pest or weed control at 1000 g/ha ([23]; 1000 Gramm/Hektar)
70%: pest or weed control at 1000 g/ha ([20]; 1000 Gramm/Hektar) | plant injury at 1000 g/ha ([22]; 1000 Gramm/Hektar) | pest or weed control at 1000 g/ha ([28]; 1000 Gramm/Hektar)
24 nM: IC50 [5]
40%: pest or weed control at 2000 g/ha ([2]; 2000 Gramm/Hektar) | plant injury at 1000 g/ha ([27]; 1000 Gramm/Hektar)
7300 nM: MIC ([7]; LB medium, overnight at 37° C., turbidity)
700 nM: IC50 [6]
30%: pest or weed control at 2000 g/ha ([3]; 2000 Gramm/Hektar) | pest or weed control at 2000 g/ha ([4]; 2000 Gramm/Hektar) | plant injury at 1000 g/ha ([11]; 1000 Gramm/Hektar) | pest or weed control at 1000 g/ha ([12]; 1000 Gramm/Hektar) | plant injury at 1000 g/ha ([16]; 1000 Gramm/Hektar) | pest or weed control at 1000 g/ha ([17]; 1000 Gramm/Hektar) | pest or weed control at 1000 g/ha ([18]; 1000 Gramm/Hektar)
50%: pest or weed control at 1000 g/ha ([19]; 1000 Gramm/Hektar) | pest or weed control at 1000 g/ha ([25]; 1000 Gramm/Hektar)

— patent US6638957B1, “Use of compounds with a nitrogen-oxygen heterocycle” (Jomaa Pharmaka GmbH, priority 1999, dated 2003)
